Measurements published in patent US6894032B2, “Use of CDP-choline for the treatment of alcohol withdrawal syndrome” (Ferrer Internacional, S.A., priority 2000, dated 2005).

Key:
[1] = system: patients with alcohol withdrawal syndrome; assay: Open clinical study of CDP-choline in alcohol withdrawal syndrome; format: in vivo, humans
Experimental: The progress of alcohol withdrawal syndrome was assessed in an open study conducted in 197 patients. CDP-choline was administered at doses of 500 mg/d i.m. or 600 mg/d p.o. for 60 days. […] At 60 days, 55.83% of patients had given up drinking alcohol and 31.97% of patients drank much less.

[2] = system: patients with alcohol withdrawal syndrome; assay: Open, randomized, comparative clinical study of CDP-choline in alcohol withdrawal syndrome versus clomethiazole and vitamin B; format: in vivo, humans; conditions: CDP-choline 500 mg i.m. every 12 h for 30 days, then 200 mg p.o. every 8 h, plus conventional therapy; versus conventional therapy alone; 20 patients per group; at 30 days
Experimental: An open, randomized and comparative study on the conventional therapy of alcohol withdrawal syndrome was conducted in 40 patients. Patients were randomly distributed in two groups of 20. One of the groups was used as control and received clomethiazole and vitamin B1, B6 and B12. This treatment regimen was maintained for 8 days, and then patients were given diazepam until completion of treatment (60 days). The other group of patients received the same treatment regimen plus CDP-choline 500 mg i.m. every 12 h for the first 30 days and CDP-choline 200 mg p.o. every 8 h for the remaining 30 days.

[3] = 197 patients, 500 mg/d i.m. or 600 mg/d p.o. for 60 days, at 60 days

`C[N+](C)(C)CCOP(=O)(O)OP(=O)([O-])OC[C@H]1O[C@@H](n2ccc(N)nc2=O)[C@H](O)[C@@H]1O` [CDP-choline, cytidine diphosphate choline] was tested, and the “anxiety, tremor, disorientation, insomnia, dysarthria, tendency to suicide and neuritic pains” value ([1]; 500 mg/d i.m. or 600 mg/d p.o. for 60 days) was “significant improvement”, the “patients who drank much less” value [1, 3] was 31.97% and the “patients who had given up drinking alcohol” value [1, 3] was 55.83%. The “assessments of progress of alcohol withdrawal syndrome” value ([1]; at 30 and 60 days following treatment, p<0.001) was “significant differences” and the “tremor incidence (p<0.05), cramps (p<0.05), asthenia (p<0.05), emotional lability (p<0.01), nervousness (p<0.05) and social withdrawal (p<0.05)” value [2] was “significant differences versus control”.
